From patent publication US9796700B2 (Celgene CAR LLC, priority 2013, dated 2017)
Read-outs that look alike come from different tables or passages of the source.

What was measured:
MEK1 activated ERK1 = MEK1 activated ERK1 (Homo sapiens (Human), UniProt P27361); experiment: Omnia continuous-read kinase assay for potency against MEK1 activated ERK1; format: biochemical
Procedure, shortened: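 Apparent IC50 came from initial reaction slopes (RFU vs time) plotted against log inhibitor with a variable-slope fit. Reactions were started with ERK1 (4 nM final) added to 50 μM ATP, roughly at its appKM, and 10 μM Sox-conjugated ST17 peptide in 20 mM Tris pH 7.5, 5 mM MgCl2. Fluorescence was monitored every 71 seconds.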

Erk1 [1] = molecular target: T1, Erk1 (Homo sapiens (Human), UniProt P27361); experiment: Protein Mass Modification Assay (intact protein MALDI); format: binding
Procedure, shortened: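 Human Erk1 was incubated 60 min at room temperature with a 10-fold molar excess of compound, then analysed as intact protein by MALDI with sinapinic acid matrix. The centroid mass shift versus untreated protein was divided by compound molecular weight to give percent modified protein.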
Target sequence in this assay (P27361 whole entry, looked up): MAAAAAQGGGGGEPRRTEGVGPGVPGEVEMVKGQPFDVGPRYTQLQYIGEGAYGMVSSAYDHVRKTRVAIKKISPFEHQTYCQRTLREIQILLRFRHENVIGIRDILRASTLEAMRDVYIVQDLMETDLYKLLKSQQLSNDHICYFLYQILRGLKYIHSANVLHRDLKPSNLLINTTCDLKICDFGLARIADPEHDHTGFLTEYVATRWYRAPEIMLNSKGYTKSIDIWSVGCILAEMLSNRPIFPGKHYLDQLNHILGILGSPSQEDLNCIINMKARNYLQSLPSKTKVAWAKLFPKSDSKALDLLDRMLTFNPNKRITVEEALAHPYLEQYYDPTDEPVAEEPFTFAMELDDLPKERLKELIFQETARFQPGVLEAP

Erk1 [2] = molecular target: T1, Erk1; experiment: Measurement of Erk occupancy with biotinylated covalent probe I-299; format: cell-based; settings: HT-29 cells
Protocol: Measurement of Erk Occupancy with Biotinylated Covalent Probe
This experiment measured occupancy of the ERK1 target by compounds according to the invention. This experiment was conducted using the Mesoscale Discovery test kit (Cat. #N45107B). One day before the assay, cells were split and added at 50,000 cells per well to a flat-bottom 96 well plate in 200 μl of growth medium. The next day, the medium was discarded, 100 μl medium containing test compound was added, and the plate was incubated at 37° C. for 120 minutes. The plate was rinsed once with PBS, and 50 μl lysis buffer with test compound was added. The plate was incubated at 4° C. for 30 min, and 30 μl of lysate was transferred to a plate to capture total and phosphor-Erk. Biotinylated probe I-299 was diluted in lysis buffer and added to each well to a final concentration of 0.2 μM. The plate was incubated for 2 hr under constant shaking at room temperature. The plate was washed 3 times with MSD wash buffer. To detect the biotinylated probe bonding, tagged streptavidin was added (MSD, Cat#R32AD-1) at 1 μg/ml, 25 μl/well, followed by a 60 min incubation under shaking. The plate was washed 3 times, 150 μl MSD Read Buffer (Cat#R61TX) was added and the plate was read in a plate reader manufactured by MSD. Percent occupancy by test compound at Erk was calculated by comparing the chemiluminescence readings from treated cells as compared to the chemiluminescence readings in untreated controls (which are defined as 100% probe bonding or 0% occupancy). The amount of covalent probe signal divided by the amount of ERK signal for samples with no test compound treatment represents the maximum probe signal (MPS). In samples treated with test compound prior to covalent probe, the ratio of probe signal to ERK signal (the test probe signal, TPS) was reduced by the degree of target occupancy by the test compound which blocks covalent probe binding. The difference between the MPS and the TPS, divided by the MPS gave the target occupancy by the test compound. This ratio was then expressed as a percent occupancy. Results from this assay are provided in Table A below under the column “Occupancy EC50 (nM) HT-29.”
Target sequence in this assay (P27361 2-379 limits assumed): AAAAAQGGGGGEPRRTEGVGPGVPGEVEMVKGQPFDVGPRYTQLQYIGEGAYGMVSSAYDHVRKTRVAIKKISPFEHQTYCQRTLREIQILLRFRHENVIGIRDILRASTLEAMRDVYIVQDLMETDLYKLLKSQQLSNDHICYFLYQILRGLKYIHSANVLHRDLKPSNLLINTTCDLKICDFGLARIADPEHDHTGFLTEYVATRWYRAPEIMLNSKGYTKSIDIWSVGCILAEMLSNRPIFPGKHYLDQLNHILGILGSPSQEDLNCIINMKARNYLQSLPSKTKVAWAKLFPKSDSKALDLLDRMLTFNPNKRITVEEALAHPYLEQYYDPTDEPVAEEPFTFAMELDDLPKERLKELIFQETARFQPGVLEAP

[3] = test system: p-RSK (ERK activity) in cells after compound washout; experiment: Measurement of duration of action of test compounds (pRSK after washout); format: cell-based; settings: 6 hr after compound washout
Protocol: The protocol below describes an assay to measure the kinase activity of ERK1 to phosphorylate its substrate, RSK, in the presence of a test compound. This experiment was conducted using a Mesoscale Discovery plate. The day before the assay, HT29 cells were split and plated at 50,000 cells/well in complete growth media. After allowing cells to adhere, the media was removed and replaced with media containing 0.1% FBS and incubated overnight. Blank MDS plates were coated with 25 μl/well RSK capture antibody and incubated at 4° C. overnight. The next day, the media was removed and replaced with 100 μl of media containing a test compound and incubated for 120 minutes at 37° C. The media was removed and replaced with 55 μl of well lysis buffer with protease and phosphatase inhibitors provided in the kit, followed by incubation at 4° C. for 30 minutes. 50 μl of lysate was transferred to a blocked MSD plate, followed by incubation at room temperature for 2 hours under constant shaking. The plate was washed 3 times with MSD wash buffer (cat#R617TX), and 25 μl/well phospho-RSK (pRSK) detection antibody was added with an appropriate Sulfo-tagged anti-species detection antibody diluted in 1% BSA in MSD wash buffer. This mixture was incubated for 1 hour at room temperature under constant shaking. The plate was washed 3 times, and 150 μl 1×MSD read buffer was added, followed by signal detection in an MSD plate reader.
Measurement of Duration of Action of Test Compounds
One day before the assay, the cells were split and added at 50,000 cells per well in flat-bottom 96 well plate in 200 μl of growth media. The next day, the medium was discarded, 100 μl medium containing test compounds was added, and the plate was incubated at 37° C. for 120 minutes. The medium was discarded, and the cells were rinsed 3 times with PBS followed by addition of 200 μl of fresh grow medium. The plate was returned to a 37° C. incubator, and separate cell lysates were made using MSD lysis buffer after 0.25, 0.5, 1, 2, 4, 6, 8 and 18 or 24 hours. Thereafter, pRSK was measured as described above in the section entitled pRSK MSD Assay. The data is presented in Table A under the column titled “p-RSK inhibition at 6 hr (%).”

HT-29 cells = experiment: Measurement of inhibition of cancer cell proliferation (CellTiterGlo); format: cell-based; settings: Homo sapiens, 72 hours
Protocol: Measurement of Inhibition of Cancer Cell Proliferation
HT-29 cells were split and 3000 cells in 100 μl of growth medium were added per well of a flat-bottom 96-well plate. A two-fold test compound solution in serum-free RPM1640 was made, starting at 5,000 nM. Then, 3-fold serial dilutions were made across the plate from well 1 to well 11. Well 12, the last well in a row on the plate, was left as untreated control. 100 μl compound solutions were then transferred to the wells, so the total volume of media was 200 μl per well. Plates were returned to a 37° C. incubator, and the cells were cultured for 72 hours. To measure cell proliferation after 72 hours, media was discarded from the plates, 50 μl/well of fresh medium was added, and 50 μl CellTiterGlo solution was added (Promega Cat#G7573). The plate was covered with a dark lid and incubated for 10 min. A sealing tape was applied to the bottom of the plate, and the plate was read in a luminescence plate reader. […] A 2-fold serial dilution was used to generate 8 cell densities from 50,000-390 cells per well in 50 μl media. 50 μl CellTiterGlo was added per well, and the plate was read in a luminescence plate reader after 10 min. The reading was plotted vs. cell number to generate a standard curve and the equation of the curve fit. The compound-treated sample luminescence readings were converted to cell numbers using the equation. The percent of inhibition, using untreated control as 100% growth, was then calculated. GI50 was then calculated by GraphPad Prism.

[4] = test system: ERK1 phosphorylation of its substrate RSK in HT29 cells; experiment: pRSK MSD Assay in HT29 cells; format: cell-based; settings: Homo sapiens, HT-29, HT29 cells; read-out: ERK1 PRSK MSD HT29 EC50
Procedure, shortened: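 HT29 cells were serum-starved overnight in 0.1% FBS, then treated with compound for 120 min at 37 °C. Lysates were assayed on MSD plates with RSK capture and phospho-RSK detection antibodies using electrochemiluminescence read-out.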

[5] = MEK1 activated ERK1, WT, ATP at KM

Sequence of MEK1 activated ERK1 (P27361 whole entry): as the sequence (P27361 whole entry, looked up) above

For `C=CC(=O)Nc1ccccc1Nc1nc(Nc2ccc(F)cc2C#N)ncc1Cl` [Compound I-211, N-(2-((5-chloro-2-((2-cyano-4-fluorophenyl)amino)pyrimidin-4-yl)amino)phenyl) acrylamide], the IC50 (MEK1 activated ERK1; [5]) was less than 100 nM, the “ERK1 Mass Mod (%)” value (Erk1 [1]) was “F (provided a mass modification of 31-69%)” and the EC50 (Erk1 [2]) was less than 100 nM.

For `C=CC(=O)Nc1ccccc1Nc1nc(Nc2cc(C(N)=O)c(F)cc2C)ncc1Cl` [Compound I-214, 5-((4-((2-acrylamidophenyl)amino)-5-chloropyrimidin-2-yl)amino)-2-fluoro-4-methylbenzamide], the IC50 (MEK1 activated ERK1; [5]) was less than 100 nM, the “ERK1 Mass Mod (%)” value (Erk1 [1]) was “F (provided a mass modification of 31-69%)” and the EC50 (Erk1 [2]) was less than 100 nM.

`C=CC(=O)Nc1cc(OC)ccc1Nc1nc(Nc2cc(OC)ncc2C)ncc1Cl` [Compound I-242, N-(2-((5-chloro-2-((2-methoxy-5-methylpyridin-4-yl)amino)pyrimidin-4-yl)amino)-5-methoxyphenyl)acrylamide] was tested, and the IC50 (MEK1 activated ERK1; [5]) was less than 100 nM, the “p-RSK inhibition at 6 hr (%)” value [3] was “E (provided a p-RSK inhibition percent of ≧70%)” and the “ERK1 Mass Mod (%)” value (Erk1 [1]) was “E (provided a mass modification of ≧70%)”.

In the case of `C=CC(=O)Nc1ccccc1Nc1nc(Nc2cc(C(N)=O)ccc2C)ncc1Cl` [Compound I-319, 3-(4-(2-acrylamidophenylamino)-5-chloropyrimidin-2-ylamino)-4-methylbenzamide], the IC50 (MEK1 activated ERK1; [5]) is reported as less than 100 nM, the “ERK1 Mass Mod (%)” value (Erk1 [1]) is reported as “E (provided a mass modification of ≧70%)” and the EC50 (Erk1 [2]) is reported as less than 100 nM.

In the case of `C=CC(=O)Nc1cc(F)ccc1Nc1nc(Nc2ccc(F)cc2C)ncc1Cl` [Compound I-212, N-(2-((5-chloro-2-((4-fluoro-2-methylphenyl)amino)pyrimidin-4-yl)amino)-5-fluorophenyl)acrylamide], the IC50 (MEK1 activated ERK1; read-out: ERK1 Omnia WT ATP KM IC50) is reported as less than 100 nM, the “ERK1 Mass Mod (%)” value (Erk1 [1]) is reported as “F (key: E: provided a mass modification of ≧70%; F: provided a mass modification of 31-69%; G: proived a mass modification ≦30%)” and the EC50 (Erk1 [2]) is reported as less than 100 nM.

With `C=CC(=O)Nc1cc(C)ccc1Nc1nc(N[C@H]2CCCN(C(=O)CF)C2)ncc1C(F)(F)F` [Compound I-43, (S)—N-(2-((2-((1-(2-Fluoroacetyl)piperidin-3-yl)amino)-5-(trifluoromethyl)pyrimidin-4-yl)amino)-5-methylphenyl)acrylamide] the GI50 (HT-29 cells) was less than 100 nM, the IC50 (MEK1 activated ERK1; [5]) was less than 100 nM and the “ERK1 Mass Mod (%)” value (Erk1 [1]) was “E (provided a mass modification of ≧70%)”. It also gave an EC50 [4] of 101 to 500 nM.

With `C=CC(=O)Nc1ccccc1Nc1nc(Nc2cc(CO)c(F)cc2C)ncc1C(F)(F)F` [Compound I-77, N-(2-((2-((4-Fluoro-5-(hydroxymethyl)-2-methylphenyl)amino)-5-(trifluoromethyl)pyrimidin-4-yl)amino)phenyl)acrylamide] the IC50 (MEK1 activated ERK1; [5]) was less than 100 nM, the “ERK1 Mass Mod (%)” value (Erk1 [1]) was “E (provided a mass modification of ≧70%)” and the EC50 (Erk1 [2]) was less than 100 nM.

`C=CC(=O)Nc1cc(F)ccc1Nc1nc(Nc2cc(C(N)=O)ccc2C)ncc1Cl` [Compound I-206, 3-((4-((2-acrylamido-4-fluorophenyl)amino)-5-chloropyrimidin-2-yl)amino)-4-methylbenzamide] was tested, and the IC50 (MEK1 activated ERK1; [5]) was less than 100 nM, the “ERK1 Mass Mod (%)” value (Erk1 [1]) was “E (provided a mass modification of ≧70%)” and the EC50 (Erk1 [2]) was less than 100 nM.

`C=CC(=O)Nc1ccccc1Nc1nc(N[C@@H]2CCC[C@H](C(N)=O)C2)ncc1C(F)(F)F` (racemic) [Compound I-2, Rac-cis-3-((4-((2-acrylamidophenyl)amino)-5-(trifluoromethyl)pyrimidin-2-yl)amino)cyclohexanecarboxamide] was tested, and the “ERK1 Mass Mod (%)” value (Erk1 [1]) was “E (provided a mass modification of ≧70%)” and the EC50 (Erk1 [2]) was less than 100 nM.

`C=CC(=O)Nc1ccccc1Nc1nc(Nc2cc(C(N)=O)c(F)cc2C)ncc1C(F)(F)F` [Compound I-76, 5-((4-((2-Acrylamidophenyl)amino)-5-(trifluoromethyl)pyrimidin-2-yl)amino)-2-fluoro-4-methylbenzamide] was tested, and the IC50 (MEK1 activated ERK1; [5]) was less than 100 nM, the “ERK1 Mass Mod (%)” value (Erk1 [1]) was “E (provided a mass modification of ≧70%)” and the EC50 (Erk1 [2]) was less than 100 nM.

`C=CC(=O)Nc1ccccc1Nc1nc(Nc2cncc(OC)c2)ncc1C(F)(F)F` [Compound I-86, N-(2-((2-((5-Methoxypyridin-3-yl)amino)-5-(trifluoromethyl)pyrimidin-4-yl)amino)phenyl)acrylamide] was tested, and the IC50 (MEK1 activated ERK1; [5]) was less than 100 nM and the “p-RSK inhibition at 6 hr (%)” value [3] was “E (provided a p-RSK inhibition percent of ≧70%)”.

With `C=CC(=O)Nc1ccccc1Nc1nc(Nc2cc(S(N)(=O)=O)ccc2C)ncc1Cl` [Compound I-205, N-(2-((5-chloro-2-((2-methyl-5-sulfamoylphenyl)amino)pyrimidin-4-yl)amino)phenyl)acrylamide] the IC50 (MEK1 activated ERK1; [5]) was less than 100 nM, the “ERK1 Mass Mod (%)” value (Erk1 [1]) was “E (provided a mass modification of ≧70%)” and the EC50 (Erk1 [2]) was less than 100 nM.

For `C=CC(=O)Nc1cc(C)ccc1Nc1nc(Nc2cc(C(N)=O)ccc2C)ncc1C(F)(F)F` [Compound I-79, 3-((4-((2-Acrylamido-4-methylphenyl)amino)-5-(trifluoromethyl)pyrimidin-2-yl)amino)-4-methylbenzamide], the “p-RSK inhibition at 6 hr (%)” value [3] was “E (provided a p-RSK inhibition percent of ≧70%)” and the “ERK1 Mass Mod (%)” value (Erk1 [1]) was “E (provided a mass modification of ≧70%)”.

For `C=CC(=O)Nc1ccccc1Nc1nc(N[C@@H]2CCC[C@H](C(N)=O)C2)ncc1Cl` (racemic) [Compound I-102, Rac-cis-3-(4-(2-acrylamidophenylamino)-5-chloropyrimidin-2-ylamino)cyclohexane carboxamide], the IC50 (MEK1 activated ERK1; [5]) was less than 100 nM, the “ERK1 Mass Mod (%)” value (Erk1 [1]) was “E (provided a mass modification of ≧70%)” and the EC50 (Erk1 [2]) was less than 100 nM.
